Tested on: 282377-053-R-J1-PDC complex spheroid viability
Experiment: Anticancer human tumor 282377-053-R-J1-PDC patient-derived colon adenocarcinoma cell line growth inhibition [RAS]
Settings: for IC50: curve of first compound; for viability, T/C: stronger effect = lower value
How it was run: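 Tumour cells grown as complex spheroids with HUVEC endothelial cells and mesenchymal stem cells, treated with RAS pathway inhibitor combinations. Each agent spans half-log steps from near clinical Cmax, or 10 microM where Cmax is unknown.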

[1] = second compound 0.00316 µM, first compound 0.0316 µM
[2] = second compound 0.00316 µM, first compound 0.1 µM
[3] = second compound 0.00316 µM, first compound 0.316 µM
[4] = second compound 0.00316 µM, first compound 1 µM
[5] = second compound 0.00316 µM, first compound 3.16 µM
[6] = second compound 0.00316 µM, first compound 10 µM
[7] = second compound 0.01 µM, first compound 0.0316 µM
[8] = second compound 0.01 µM, first compound 0.1 µM
[9] = second compound 0.01 µM, first compound 0.316 µM
[10] = second compound 0.01 µM, first compound 1 µM
[11] = second compound 0.01 µM, first compound 3.16 µM
[12] = second compound 0.01 µM, first compound 10 µM
[13] = second compound 0.0316 µM, first compound 0.0316 µM
[14] = second compound 0.0316 µM, first compound 0.1 µM
[15] = second compound 0.0316 µM, first compound 0.316 µM
[16] = second compound 0.0316 µM, first compound 1 µM
[17] = second compound 0.0316 µM, first compound 3.16 µM
[18] = second compound 0.0316 µM, first compound 10 µM
[19] = second compound 0.1 µM, first compound 0.0316 µM
[20] = second compound 0.1 µM, first compound 0.1 µM
[21] = second compound 0.1 µM, first compound 0.316 µM
[22] = second compound 0.1 µM, first compound 1 µM
[23] = second compound 0.1 µM, first compound 3.16 µM
[24] = second compound 0.1 µM, first compound 10 µM
[25] = second compound 0.316 µM, first compound 0.0316 µM
[26] = second compound 0.316 µM, first compound 0.1 µM
[27] = second compound 0.316 µM, first compound 0.316 µM
[28] = second compound 0.316 µM, first compound 1 µM
[29] = second compound 0.316 µM, first compound 3.16 µM
[30] = second compound 0.316 µM, first compound 10 µM
[31] = second compound 1 µM, first compound 0.0316 µM
[32] = second compound 1 µM, first compound 0.1 µM
[33] = second compound 1 µM, first compound 0.316 µM
[34] = second compound 1 µM, first compound 1 µM
[35] = second compound 1 µM, first compound 3.16 µM
[36] = second compound 1 µM, first compound 10 µM
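Further: spheroids exposed to agents for seven days before readout.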
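Wherever viability, T/C is given: luminescence viability as percent of DMSO vehicle control wells.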

## CC(C)NCC(C(=O)N1CCN(c2ncnc3c2C(C)CC3O)CC1)c1ccc(Cl)cc1 (stereo unspecified) + C=CC(=O)N1CCN(c2nc(OCC3CCCN3C)nc3c(F)c(-c4nc(N)cc(C)c4C(F)(F)F)c(Cl)cc23)C(C)C1
Second compound 0.00316 µM
  IC50: > 10 µM
Second compound 0.01 µM
  IC50: > 10 µM
Second compound 0.0316 µM
  IC50: > 10 µM
Second compound 0.1 µM
  IC50: > 10 µM
Second compound 0.316 µM
  IC50: > 10 µM
Second compound 1 µM
  IC50: > 10 µM
[1]
  viability, T/C: 104%
[2]
  viability, T/C: 108%
[3]
  viability, T/C: 96.2%
[4]
  viability, T/C: 94.1%
[5]
  viability, T/C: 88.8%
[6]
  viability, T/C: 84.7%
[7]
  viability, T/C: 99.3%
[8]
  viability, T/C: 107%
[9]
  viability, T/C: 83.2%
[10]
  viability, T/C: 110%
[11]
  viability, T/C: 89.5%
[12]
  viability, T/C: 75.6%
[13]
  viability, T/C: 98.2%
[14]
  viability, T/C: 99.3%
[15]
  viability, T/C: 89.3%
[16]
  viability, T/C: 97.3%
[17]
  viability, T/C: 91.8%
[18]
  viability, T/C: 85.4%
[19]
  viability, T/C: 97.9%
[20]
  viability, T/C: 105%
[21]
  viability, T/C: 98.7%
[22]
  viability, T/C: 95.8%
[23]
  viability, T/C: 82.7%
[24]
  viability, T/C: 79.8%
[25]
  viability, T/C: 101%
[26]
  viability, T/C: 96.7%
[27]
  viability, T/C: 96.2%
[28]
  viability, T/C: 98%
[29]
  viability, T/C: 101%
[30]
  viability, T/C: 84.8%
[31]
  viability, T/C: 100%
[32]
  viability, T/C: 88.5%
[33]
  viability, T/C: 118%
[34]
  viability, T/C: 78.9%
[35]
  viability, T/C: 68.7%
[36]
  viability, T/C: 76%

## CC(C)n1nc(-c2ccc3oc(N)nc3c2)c2c(N)ncnc21 + C=CC(=O)N1CCN(c2nc(OCC3CCCN3C)nc3c(F)c(-c4nc(N)cc(C)c4C(F)(F)F)c(Cl)cc23)C(C)C1
Second compound 0.00316 µM
  IC50: > 0.1 µM
Second compound 0.01 µM
  IC50: 0.0898 µM
Second compound 0.0316 µM
  IC50: 0.0941 µM
Second compound 0.1 µM
  IC50: 0.0859 µM
Second compound 0.316 µM
  IC50: > 0.1 µM
Second compound 1 µM
  IC50: > 0.1 µM
Second compound 0.00316 µM, first compound 0.000316 µM
  viability, T/C: 96.6%
Second compound 0.00316 µM, first compound 0.001 µM
  viability, T/C: 86.9%
Second compound 0.00316 µM, first compound 0.00316 µM
  viability, T/C: 80%
Second compound 0.00316 µM, first compound 0.01 µM
  viability, T/C: 87.7%
[1]
  viability, T/C: 62.8%
[2]
  viability, T/C: 54.5%
Second compound 0.01 µM, first compound 0.000316 µM
  viability, T/C: 85.3%
Second compound 0.01 µM, first compound 0.001 µM
  viability, T/C: 81%
Second compound 0.01 µM, first compound 0.00316 µM
  viability, T/C: 74.5%
Second compound 0.01 µM, first compound 0.01 µM
  viability, T/C: 87%
[7]
  viability, T/C: 68.8%
[8]
  viability, T/C: 47.8%
Second compound 0.0316 µM, first compound 0.000316 µM
  viability, T/C: 92.2%
Second compound 0.0316 µM, first compound 0.001 µM
  viability, T/C: 98.3%
Second compound 0.0316 µM, first compound 0.00316 µM
  viability, T/C: 87.5%
Second compound 0.0316 µM, first compound 0.01 µM
  viability, T/C: 82.5%
[13]
  viability, T/C: 97.5%
[14]
  viability, T/C: 47.7%
Second compound 0.1 µM, first compound 0.000316 µM
  viability, T/C: 81.7%
Second compound 0.1 µM, first compound 0.001 µM
  viability, T/C: 105%
Second compound 0.1 µM, first compound 0.00316 µM
  viability, T/C: 91%
Second compound 0.1 µM, first compound 0.01 µM
  viability, T/C: 78.3%
[19]
  viability, T/C: 77.5%
[20]
  viability, T/C: 45.7%
Second compound 0.316 µM, first compound 0.000316 µM
  viability, T/C: 110%
Second compound 0.316 µM, first compound 0.001 µM
  viability, T/C: 103%
Second compound 0.316 µM, first compound 0.00316 µM
  viability, T/C: 109%
Second compound 0.316 µM, first compound 0.01 µM
  viability, T/C: 68.3%
[25]
  viability, T/C: 61.9%
[26]
  viability, T/C: 48.6%
Second compound 1 µM, first compound 0.000316 µM
  viability, T/C: 99.9%
Second compound 1 µM, first compound 0.001 µM
  viability, T/C: 85.1%
Second compound 1 µM, first compound 0.00316 µM
  viability, T/C: 112%
Second compound 1 µM, first compound 0.01 µM
  viability, T/C: 67.7%
[31]
  viability, T/C: 55.4%
[32]
  viability, T/C: 61.9%

## CC(Nc1ccc2c(c1)OCCn1cc(N3C(=O)OCC3C(F)F)nc1-2)C(N)=O (stereo unspecified) + C=CC(=O)N1CCN(c2nc(OCC3CCCN3C)nc3c(F)c(-c4nc(N)cc(C)c4C(F)(F)F)c(Cl)cc23)C(C)C1
Second compound 0.00316 µM
  IC50: > 10 µM
Second compound 0.01 µM
  IC50: > 10 µM
Second compound 0.0316 µM
  IC50: > 10 µM
Second compound 0.1 µM
  IC50: > 10 µM
Second compound 0.316 µM
  IC50: > 10 µM
Second compound 1 µM
  IC50: > 10 µM
[1]
  viability, T/C: 100%
[2]
  viability, T/C: 93.8%
[3]
  viability, T/C: 94.3%
[4]
  viability, T/C: 82.6%
[5]
  viability, T/C: 78.9%
[6]
  viability, T/C: 70.1%
[7]
  viability, T/C: 105%
[8]
  viability, T/C: 89.1%
[9]
  viability, T/C: 79.6%
[10]
  viability, T/C: 82.4%
[11]
  viability, T/C: 89.9%
[12]
  viability, T/C: 81.5%
[13]
  viability, T/C: 91.1%
[14]
  viability, T/C: 86.9%
[15]
  viability, T/C: 87.1%
[16]
  viability, T/C: 88.9%
[17]
  viability, T/C: 77.6%
[18]
  viability, T/C: 86.1%
[19]
  viability, T/C: 101%
[20]
  viability, T/C: 94.1%
[21]
  viability, T/C: 95.5%
[22]
  viability, T/C: 82.2%
[23]
  viability, T/C: 102%
[24]
  viability, T/C: 76.7%
[25]
  viability, T/C: 104%
[26]
  viability, T/C: 92.8%
[27]
  viability, T/C: 100%
[28]
  viability, T/C: 94.3%
[29]
  viability, T/C: 78.2%
[30]
  viability, T/C: 78.4%
[31]
  viability, T/C: 105%
[32]
  viability, T/C: 102%
[33]
  viability, T/C: 92%
[34]
  viability, T/C: 93.8%
[35]
  viability, T/C: 76%
[36]
  viability, T/C: 83.8%
